The MIC is the lowest concentration found to suppress growth.

From ChEMBL document CHEMBL3044935, “Synthesis and in vitro microbiological evaluation of novel 2,4-diaryl-3-azabicyclo[3.3.1]nonan-9,5-spiro-1,2,4-triazolidine-3-thiones” (2012) come the findings set out here.

SMILES strings stand for the structures. In brackets after ≈: the same amount, converted by molar mass.

Common to all, as to format: functional
One test concerns Escherichia coli. Kind of test: Antimicrobial activity against Escherichia coli after 24 hr by two-fold serial dilution method.
Another test deals with Nannizzia gypsea. Kind of test: Antimicrobial activity against Microsporum gypseum after 72 to 96 hr by two-fold serial dilution method.
The subject of another test is Streptococcus. Kind of test: Antimicrobial activity against beta-hemolytic Streptococcus after 24 hr by two-fold serial dilution method.
The next test concerns Shigella flexneri. Kind of test: Antimicrobial activity against Shigella flexneri after 24 hr by two-fold serial dilution method.
The next test deals with Mucor. Kind of test: Antimicrobial activity against Mucor after 72 to 96 hr by two-fold serial dilution method.
A further test relates to Salmonella typhi. Kind of test: Antimicrobial activity against Salmonella enterica subsp. enterica serovar Typhi after 24 hr by two-fold serial dilution method.
The next test concerns Aspergillus flavus. Kind of test: Antimicrobial activity against Aspergillus flavus after 72 to 96 hr by two-fold serial dilution method.
A further test relates to Klebsiella pneumoniae. Kind of test: Antimicrobial activity against Klebsiella pneumoniae after 24 hr by two-fold serial dilution method.
In another test the test system is Vibrio cholerae. Nature of the test: Antimicrobial activity against Vibrio cholerae after 24 hr by two-fold serial dilution method.
A further test relates to Rhizopus. Nature of the test: Antimicrobial activity against Rhizopus after 72 to 96 hr by two-fold serial dilution method.
In another test the test system is Staphylococcus aureus. Kind of test: Antimicrobial activity against Staphylococcus aureus after 24 hr by two-fold serial dilution method.

In the case of `COc1ccc(C2NC(c3ccc(OC)cc3)C3CCCC2C32NNC(=S)N2)cc1` (stereo not drawn), the MIC against Escherichia coli stood at 100 µg/mL (≈ 236 µM); with Nannizzia gypsea it was 50 µg/mL (≈ 118 µM); in the test on Streptococcus, 100 µg/mL (≈ 236 µM); with Shigella flexneri it was 25 µg/mL (≈ 58.9 µM); in the test with Mucor, 50 µg/mL (≈ 118 µM); against Salmonella typhi, 200 µg/mL (≈ 471 µM). Besides, the MIC in the test with Aspergillus flavus amounted to 100 µg/mL (≈ 236 µM); against Klebsiella pneumoniae, 12.5 µg/mL (≈ 29.4 µM); in the test on Vibrio cholerae, 50 µg/mL (≈ 118 µM); in the test with Rhizopus, 25 µg/mL (≈ 58.9 µM); in the test on Staphylococcus aureus, 100 µg/mL (≈ 236 µM).
Regarding `S=C1NNC2(N1)C1CCCC2C(c2ccccc2)NC1c1ccccc1` (stereo not drawn), the MIC is 200 µg/mL (≈ 549 µM) against Escherichia coli; 200 µg/mL (≈ 549 µM) in the test with Nannizzia gypsea; 100 µg/mL (≈ 274 µM) in the test with Streptococcus; 100 µg/mL (≈ 274 µM) against Shigella flexneri; 200 µg/mL (≈ 549 µM) in the test with Mucor; 50 µg/mL (≈ 137 µM) against Salmonella typhi. Moreover, the MIC with Aspergillus flavus turned out to be 100 µg/mL (≈ 274 µM); with Klebsiella pneumoniae, 100 µg/mL (≈ 274 µM); in the test with Vibrio cholerae, 50 µg/mL (≈ 137 µM); with Rhizopus it was 200 µg/mL (≈ 549 µM); against Staphylococcus aureus, 100 µg/mL (≈ 274 µM).
As for `Fc1ccc(C2NC(c3ccc(F)cc3)C3CCCC2C32NNC(=S)N2)cc1` (stereo not drawn), the MIC is 100 µg/mL (≈ 250 µM) against Escherichia coli; 6.25 µg/mL (≈ 15.6 µM) with Nannizzia gypsea; 12.5 µg/mL (≈ 31.2 µM) with Streptococcus; 50 µg/mL (≈ 125 µM) against Shigella flexneri; 100 µg/mL (≈ 250 µM) against Mucor; 100 µg/mL (≈ 250 µM) with Salmonella typhi. The MIC against Aspergillus flavus is 6.25 µg/mL (≈ 15.6 µM); against Klebsiella pneumoniae it was 6.25 µg/mL (≈ 15.6 µM); against Vibrio cholerae it was 12.5 µg/mL (≈ 31.2 µM); against Rhizopus, 12.5 µg/mL (≈ 31.2 µM); against Staphylococcus aureus it was 6.25 µg/mL (≈ 15.6 µM).
`S=C1NNC2(N1)C1CCCC2C(c2ccc(Cl)cc2)NC1c1ccc(Cl)cc1` (stereo not drawn): the minimum inhibitory concentration (MIC) in the test with Escherichia coli is 12.5 µg/mL (≈ 28.8 µM); in the test on Nannizzia gypsea, 12.5 µg/mL (≈ 28.8 µM); in the test on Streptococcus, 50 µg/mL (≈ 115 µM); against Shigella flexneri it was 100 µg/mL (≈ 231 µM); in the test on Mucor, 12.5 µg/mL (≈ 28.8 µM); in the test with Salmonella typhi, 12.5 µg/mL (≈ 28.8 µM). Moreover, the MIC in the test on Aspergillus flavus was 12.5 µg/mL (≈ 28.8 µM); with Klebsiella pneumoniae it was 100 µg/mL (≈ 231 µM); against Vibrio cholerae, 25 µg/mL (≈ 57.7 µM); against Rhizopus, 25 µg/mL (≈ 57.7 µM); with Staphylococcus aureus, 12.5 µg/mL (≈ 28.8 µM).
For `S=C1NNC2(N1)C1CCCC2C(c2ccc(Br)cc2)NC1c1ccc(Br)cc1` (stereo not drawn), the MIC was found to be 100 µg/mL (≈ 191 µM) with Escherichia coli; 25 µg/mL (≈ 47.9 µM) against Nannizzia gypsea; 6.25 µg/mL (≈ 12 µM) in the test on Streptococcus; 50 µg/mL (≈ 95.7 µM) against Shigella flexneri; 12.5 µg/mL (≈ 23.9 µM) in the test on Mucor; 12.5 µg/mL (≈ 23.9 µM) in the test on Salmonella typhi. Also, the MIC against Aspergillus flavus was 6.25 µg/mL (≈ 12 µM); in the test on Klebsiella pneumoniae it was 100 µg/mL (≈ 191 µM); against Vibrio cholerae, 25 µg/mL (≈ 47.9 µM); in the test on Rhizopus it was 12.5 µg/mL (≈ 23.9 µM); against Staphylococcus aureus, 12.5 µg/mL (≈ 23.9 µM).
For the molecule `O=[N+]([O-])c1ccc(C2NC(c3ccc([N+](=O)[O-])cc3)C3CCCC2C32NNC(=S)N2)cc1` (stereo not drawn), the MIC in the test with Escherichia coli was determined as 100 µg/mL (≈ 220 µM); with Nannizzia gypsea, 12.5 µg/mL (≈ 27.5 µM); against Streptococcus it was 12.5 µg/mL (≈ 27.5 µM); in the test with Shigella flexneri, 50 µg/mL (≈ 110 µM); with Mucor, 25 µg/mL (≈ 55 µM); against Salmonella typhi it was 100 µg/mL (≈ 220 µM). In addition, the MIC against Aspergillus flavus stood at 25 µg/mL (≈ 55 µM); against Klebsiella pneumoniae it was 50 µg/mL (≈ 110 µM); in the test with Vibrio cholerae, 25 µg/mL (≈ 55 µM); against Rhizopus, 12.5 µg/mL (≈ 27.5 µM); against Staphylococcus aureus, 12.5 µg/mL (≈ 27.5 µM).
Regarding `Cc1ccc(C2NC(c3ccc(C)cc3)C3CCCC2C32NNC(=S)N2)cc1` (stereo not drawn), the MIC in the test with Escherichia coli was 200 µg/mL (≈ 509 µM); in the test on Nannizzia gypsea, 50 µg/mL (≈ 127 µM); against Streptococcus, 50 µg/mL (≈ 127 µM); against Shigella flexneri, 200 µg/mL (≈ 509 µM); against Mucor, 100 µg/mL (≈ 255 µM); with Salmonella typhi, 50 µg/mL (≈ 127 µM). Moreover, the minimum inhibitory concentration (MIC) in the test with Aspergillus flavus amounted to 200 µg/mL (≈ 509 µM); in the test with Klebsiella pneumoniae, 200 µg/mL (≈ 509 µM); in the test on Vibrio cholerae it was 50 µg/mL (≈ 127 µM); in the test with Rhizopus, 50 µg/mL (≈ 127 µM); against Staphylococcus aureus it was 50 µg/mL (≈ 127 µM).
As to `O=C(O)c1cn(C2CC2)c2cc(N3CCNCC3)c(F)cc2c1=O` [CIPROFLOXACIN], the MIC with Escherichia coli came out at 25 µg/mL (≈ 75.4 µM); with Streptococcus, 12.5 µg/mL (≈ 37.7 µM); against Shigella flexneri, 25 µg/mL (≈ 75.4 µM); with Salmonella typhi it was 25 µg/mL (≈ 75.4 µM); with Klebsiella pneumoniae, 12.5 µg/mL (≈ 37.7 µM); against Vibrio cholerae, 25 µg/mL (≈ 75.4 µM). The molecule also returned a minimal inhibitory concentration (MIC) in the test with Staphylococcus aureus of 12.5 µg/mL (≈ 37.7 µM).
Consider `OC(Cn1cncn1)(Cn1cncn1)c1ccc(F)cc1F` [FLUCONAZOLE], for which the minimum inhibitory concentration (MIC) amounted to 12.5 µg/mL (≈ 40.8 µM) in the test on Nannizzia gypsea, 12.5 µg/mL (≈ 40.8 µM) against Mucor, 25 µg/mL (≈ 81.6 µM) against Aspergillus flavus and 25 µg/mL (≈ 81.6 µM) in the test with Rhizopus.
